In PMC7712428, “Dimethoate Induces DNA Damage and Mitochondrial Dysfunction Triggering Apoptosis in Rat Bone-Marrow and Peripheral Blood Cells” (Toxics, 2020):
Read-outs that look alike come from different tables or passages of the source. Marks after values point to notes of the source that are not given here.

What was measured:
bone marrow cells [1] = settings: for Structural Aberrations Del: number of deletions; for Structural Aberrations Dcn: number of dicentrics; for Structural Aberrations Frag: number of fragments; for Structural Aberrations Gp: number of gaps; for Structural Aberrations Ring: number of rings
Source text: (§1) The experimental animals—Rattus norvegicus (Wistar strain; 8–10 weeks old; 120 ± 20 gm; males only) were acquired from Indian Institute of Integrative Medicine (IIIM-CSIR) (Jammu, India), quarantined, acclimatized and sacrificed as per standard practice conforming to the University Ethical Regulations. After acclimatization, rats were divided into five groups by stratified randomization with five animals per group. […] Distilled water was used to prepare dosing solutions of test agent and injected via intraperitoneal (i.p.) injection. At 24, 48 and 72 h post-dosing, 5 rats per duration were sacrificed and necessary tissues were isolated for different cytogenetic and molecular parameters. For CA assessment, separate experimental lot was used due to colchicine treatment.
Method of Preston et al. was used for preparing the metaphase chromosomes. An aqueous solution of Colchicine (4 mg/kgbw) was injected intraperitoneally 2 h prior to sacrificing the animal. Pre-warm KCL (0.075 M) solution was used to collect the bone marrow cells followed by incubation at 37 °C for 20 min, and then centrifuge at 1000 rpm for 10 min. After fixing the pellet in cold Cornoy’s fixative dropped onto clean pre-chilled glass slide in 30% ethanol and dried in air. 5% buffered Giemsa (pH 7.0) was used for staining. Chromosomal aberrations were analyzed on properly separated metaphases and finally photographed at 100× (Olympus U—PMTV microscope), using oil immersion. The metaphase cells from approximately 1000 cells per concentration per animal both in exposed and control replicates, expressed in percentage were considered for mitotic indices (MI).

bone marrow cells [2] = settings: for P/N: PCE:NCE ratio
Source text: as §1
MN assay followed the protocol of Schmid. Immediately after sacrificing the animals, both femurs were removed from the pelvic bone and freed from the extra muscles. After cutting the epiphyses, the bone marrow was collected by gentle flushing with 2 mL FBS. Centrifuge cell suspension at 1000 rpm for 5 min and discarded the supernatant. The pellets obtained were saved in 50 μL fresh FBS. Re-suspended the cell pellet and a small drop was spread onto clean grease-free glass slides and dried in air. By using absolute methanol, the smears were fixed for 10min following the staining by May-Grunwald / buffered Giemsa at pH 6.8. Micronuclei and the ratio of polychromatic erythrocyte (PCE) to normochromatic erythrocyte (NCE) i.e., P/N were scored. The micronucleus frequencies (indicated as mean percent micronucleated cells) were examined by considering the micronucleated PCEs number (MNPCEs) from at least 2000 PCEs/animal. Cytotoxic effect of test compound was evaluated by calculating the PCE:NCE ratio in at least 1000 erythrocytes per animal. For final observation, DPX mounted slides were photographed at 100× with oil immersion (Olympus U—PMTV microscope mounted with optical zoom camera).

CNC(=O)CSP(=S)(OC)OC [DM, 0,0- Dimethyl S-(N-methylcarbamoylmethyl) phosphorodithiote]
Structural Aberrations Del (bone marrow cells [1]; 40 mg/kgbw, 48 h): 4
Structural Aberrations Del (bone marrow cells [1]; 40 mg/kgbw, 72 h): 2
Structural Aberrations Del (bone marrow cells [1]; 60 mg/kgbw, 24 h): 6
Structural Aberrations Del (bone marrow cells [1]; 60 mg/kgbw, 48 h): 5
Structural Aberrations Del (bone marrow cells [1]; 60 mg/kgbw, 72 h): 3
Structural Aberrations Dcn (bone marrow cells [1]; 20 mg/kgbw, 24 h): 8
Structural Aberrations Dcn (bone marrow cells [1]; 20 mg/kgbw, 48 h): 3
Structural Aberrations Dcn (bone marrow cells [1]; 20 mg/kgbw, 72 h): 2
Structural Aberrations Dcn (bone marrow cells [1]; 40 mg/kgbw, 24 h): 12
Structural Aberrations Dcn (bone marrow cells [1]; 40 mg/kgbw, 48 h): 8
Structural Aberrations Dcn (bone marrow cells [1]; 40 mg/kgbw, 72 h): 2
Structural Aberrations Dcn (bone marrow cells [1]; 60 mg/kgbw, 24 h): 10
Structural Aberrations Dcn (bone marrow cells [1]; 60 mg/kgbw, 48 h): 7
Structural Aberrations Dcn (bone marrow cells [1]; 60 mg/kgbw, 72 h): 2
Structural Aberrations Frag (bone marrow cells [1]; 20 mg/kgbw, 24 h): 6
Structural Aberrations Frag (bone marrow cells [1]; 20 mg/kgbw, 48 h): 12
Structural Aberrations Frag (bone marrow cells [1]; 20 mg/kgbw, 72 h): 4
Structural Aberrations Frag (bone marrow cells [1]; 40 mg/kgbw, 24 h): 3
Structural Aberrations Frag (bone marrow cells [1]; 40 mg/kgbw, 48 h): 16
Structural Aberrations Frag (bone marrow cells [1]; 40 mg/kgbw, 72 h): 5
Structural Aberrations Frag (bone marrow cells [1]; 60 mg/kgbw, 24 h): 8
Structural Aberrations Frag (bone marrow cells [1]; 60 mg/kgbw, 48 h): 14
Structural Aberrations Frag (bone marrow cells [1]; 60 mg/kgbw, 72 h): 3
Structural Aberrations Gp (bone marrow cells [1]; 20 mg/kgbw, 24 h): 8
Structural Aberrations Gp (bone marrow cells [1]; 20 mg/kgbw, 48 h): 6
Structural Aberrations Gp (bone marrow cells [1]; 20 mg/kgbw, 72 h): 5
Structural Aberrations Gp (bone marrow cells [1]; 40 mg/kgbw, 24 h): 8
Structural Aberrations Gp (bone marrow cells [1]; 40 mg/kgbw, 48 h): 7
Structural Aberrations Gp (bone marrow cells [1]; 40 mg/kgbw, 72 h): 7
Structural Aberrations Gp (bone marrow cells [1]; 60 mg/kgbw, 24 h): 7
Structural Aberrations Gp (bone marrow cells [1]; 60 mg/kgbw, 48 h): 8
Structural Aberrations Gp (bone marrow cells [1]; 60 mg/kgbw, 72 h): 6
Structural Aberrations Ring (bone marrow cells [1]; 20 mg/kgbw, 24 h): 2
Structural Aberrations Ring (bone marrow cells [1]; 20 mg/kgbw, 48 h): 6
Structural Aberrations Ring (bone marrow cells [1]; 20 mg/kgbw, 72 h): 1
Structural Aberrations Ring (bone marrow cells [1]; 40 mg/kgbw, 24 h): 6
Structural Aberrations Ring (bone marrow cells [1]; 40 mg/kgbw, 48 h): 5
Structural Aberrations Ring (bone marrow cells [1]; 40 mg/kgbw, 72 h): 1
Structural Aberrations Ring (bone marrow cells [1]; 60 mg/kgbw, 24 h): 4
Structural Aberrations Ring (bone marrow cells [1]; 60 mg/kgbw, 48 h): 9
Structural Aberrations Ring (bone marrow cells [1]; 60 mg/kgbw, 72 h): 2
MNPCE (Mean% ± SD) (bone marrow cells [2]; 20 mg/kgbw i.p., 24 h): 4.4 ± 0.51 %
MNPCE (Mean% ± SD) (bone marrow cells [2]; 20 mg/kgbw i.p., 48 h): 4.0 ± 0.44 %
MNPCE (Mean% ± SD) (bone marrow cells [2]; 20 mg/kgbw i.p., 72 h): 3.6 ± 0.50 %
MNPCE (Mean% ± SD) (bone marrow cells [2]; 40 mg/kgbw i.p., 24 h): 5.2 ± 0.58 %
MNPCE (Mean% ± SD) (bone marrow cells [2]; 40 mg/kgbw i.p., 48 h): 4.8 ± 0.86 %
MNPCE (Mean% ± SD) (bone marrow cells [2]; 40 mg/kgbw i.p., 72 h): 4.1 ± 0.73 %
MNPCE (Mean% ± SD) (bone marrow cells [2]; 60 mg/kgbw i.p., 24 h): 5.6 ± 0.7%
MNPCE (Mean% ± SD) (bone marrow cells [2]; 60 mg/kgbw i.p., 48 h): 4.9 ± 0.74 %
MNPCE (Mean% ± SD) (bone marrow cells [2]; 60 mg/kgbw i.p., 72 h): 3.8 ± 0.80 %
P/N (bone marrow cells [2]; 20 mg/kgbw i.p., 24 h): 0.740 *
P/N (bone marrow cells [2]; 20 mg/kgbw i.p., 48 h): 0.736 *
P/N (bone marrow cells [2]; 20 mg/kgbw i.p., 72 h): 0.731 *
P/N (bone marrow cells [2]; 40 mg/kgbw i.p., 24 h): 0.728 *
P/N (bone marrow cells [2]; 40 mg/kgbw i.p., 48 h): 0.715 *
P/N (bone marrow cells [2]; 60 mg/kgbw i.p., 24 h): 0.725 *
P/N (bone marrow cells [2]; 60 mg/kgbw i.p., 48 h): 0.721 *
P/N (bone marrow cells [2]; 60 mg/kgbw i.p., 72 h): 0.718 *
